Test results taken from article PMC7248098, “Biochemical characterization and inhibition of the alternative oxidase enzyme from the fungal phytopathogen Moniliophthora perniciosa” (Communications Biology, 2020).
Where “and” joins values, the source holds several entries; their conditions need not be identical. Identical values can stand only once.

Tests used:
membrane-bound rMpAOX = membrane-bound rMpAOX (Moniliophthora perniciosa, UniProt A8QJP8); test: Dose-response assay of inhibitors with membrane-bound, GMP-activated rMpAOX (NADH oxidation); format: biochemical
Sequence of membrane-bound rMpAOX (A8QJP8 entry or part of it): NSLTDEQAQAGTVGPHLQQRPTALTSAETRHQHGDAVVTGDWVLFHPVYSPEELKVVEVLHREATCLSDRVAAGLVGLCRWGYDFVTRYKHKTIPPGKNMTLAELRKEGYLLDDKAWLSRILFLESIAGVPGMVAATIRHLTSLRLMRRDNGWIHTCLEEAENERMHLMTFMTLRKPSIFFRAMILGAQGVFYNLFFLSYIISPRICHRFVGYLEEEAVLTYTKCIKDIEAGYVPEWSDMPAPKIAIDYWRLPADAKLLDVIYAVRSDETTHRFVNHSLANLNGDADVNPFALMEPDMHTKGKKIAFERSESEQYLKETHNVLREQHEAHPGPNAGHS
Description: E. coli membrane preparation was performed as described with minor modifications. […] The cells were disrupted using two passes at […] through a pre-cooled Constant cell disruption system (Constant Systems Ltd). The lysate was centrifuged for 15 min at 16,000 rcf, and the pelleted unbroken cells and large cell debris were discarded. The supernatant was centrifuged for 90 min at 200,000 rcf to collect the fragmented membranes.
(§1) Respiration rates were recorded before and after the addition of putative AOX activators, such as 5′-ADP, 5′-AMP, 5′-GDP, 5′-GMP, glyoxylate, oxaloacetate, pyruvate or succinate (1 mM each unless stated otherwise). […] Data were acquired with the Multiskan FC Microplate Photometer (ThermoFisher). […] Absorbance readings were taken periodically and a blank reactions (substrate without enzyme) were included in every assay and were used to determine and subtract the autoxidation rate (background). Proteoliposomes were assayed as described for the E. coli membrane fraction except that no KCN was included and 0.5 µL of the prep (~50 ng rMpAOX) were added into the reaction. When tested, inhibitors were preincubated with the enzyme in reaction buffer for 2–5 min before starting the reaction by the addition of substrate. The path length (i.e., the height of the reaction medium inside the well) was calculated based on the reaction volume and the well cross-section area informed by the supplier. GraphPad Prism 7.0 (GraphPad Software Inc.) was used for function fitting.

purified rMpAOX = purified rMpAOX (Moniliophthora perniciosa, UniProt A8QJP8); test: Purified (detergent-solubilised) rMpAOX, Q1H2 oxidation; format: biochemical
Sequence of purified rMpAOX (A8QJP8 entry or part of it): as above
Description: The E. coli membrane fraction was resuspended with 50 mM Tris-HCl pH 7.5, 20% glycerol, 200 mM MgSO4 and 1% Fos-Choline-12 (FC-12) instead of MOPS buffer. The sample was left under gentle rocking for 1 h at 4 °C, after which it was centrifuged at 200,000 rcf for 30 min. […] T. Elthon, Nebraska, USA. Protein content was estimated through the Bradford method[63] and bovine serum albumin as standard.
as §1

[1] = biological target: rMpAOX incorporated into proteoliposomes (Moniliophthora perniciosa, UniProt A8QJP8); test: rMpAOX incorporated into proteoliposomes with Q10 and NDH-2 (NADH oxidation); format: biochemical
Sequence of rMpAOX incorporated into proteoliposomes (A8QJP8 entry or part of it): as above
Description: Proteoliposomes (PL) were prepared as previously described[44],[45], except that NDH-2 was used instead of complex I and 0.5% DDM was used instead of OG. […] For kinetic studies, PLs were prepared with 50 µg rMpAOX and no NDH-2—in this case, pure NDH-2 was added directly into the enzymatic reaction mixture at a saturating concentration. Briefly, lipids and Q10 stocks in chloroform were mixed in a glass vial and the chloroform dried under a nitrogen stream. The lipids were hydrated and extruded through a 100 nm NanoSizer MINI Liposome Extruder (T&T Scientific) followed by the addition of protein. After treatment with the Bio-Beads SM-2 Resin (Bio-Rad), proteolipososmes were harvested by ultracentrifugation and resuspended in 150 µL of buffer. Enzymatic assays were performed on the same day.
as §1

membrane-bound TAO = tested on: membrane-bound TAO; set-up: method as in PMID 23180806; conditions: cited from earlier work
solubilised TAO = tested on: solubilised TAO; set-up: method as in PMID 29107420; conditions: cited from earlier work
[2] = tested on: TAO incorporated into PLs; set-up: method as in PMID 29133414; conditions: cited from earlier work
M. perniciosa = tested on: M. perniciosa; set-up: method as in PMID 22443281, PMID 30350447; conditions: cited from earlier work

## CC(C)=CCC/C(C)=C/Cc1c(O)c(Cl)c(C)c(C=O)c1O [CB, colletochlorin B]
membrane-bound rMpAOX; log[I], M -4.60206 (Fig2b), 25 µM
  Fractional velocity, %: 2.536% and 2.662% and 8.437%
membrane-bound rMpAOX; log[I], M -5.60206 (Fig2b), 2.5 µM
  Fractional velocity, %: 2.977% and 3.203% and 8.094%
membrane-bound rMpAOX; log[I], M -6.60206 (Fig2b), 0.25 µM
  Fractional velocity, %: 4.262% and 7.7642% and 10.3237%
membrane-bound rMpAOX; log[I], M -8.60206 (Fig2b), 0.0025 µM
  Fractional velocity, %: 76.0268% and 98.1726% and 76.3221%
membrane-bound rMpAOX; log[I], M -9.60206 (Fig2b), 0.00025 µM
  Fractional velocity, %: 96.6921% and 90.9449%
membrane-bound rMpAOX; log[I], M -9.60206 (Fig2b), read-out: Fractional velocity, %
  activity at 0.00025 µM: 96.2%
membrane-bound rMpAOX; log[I], M -10.6021 (Fig2b), 25 pM
  Fractional velocity, %: 95.8052% and 91.68%
membrane-bound rMpAOX; log[I], M -10.6021 (Fig2b), read-out: Fractional velocity, %
  activity at 25 pM: 92%
membrane-bound rMpAOX; membrane-bound, GMP-activated rMpAOX, read-out: IC50
  IC50: 14.8 nM
Purified rMpAOX; Morrison equation for tight-binders, read-out: KIapp
  Ki: 13.9 nM
Purified rMpAOX; [I], M 2.5e-12, read-out: Dose-response assay with CB, (Fig3d)
  activity at 2.5 pM: 99.5%
Purified rMpAOX; [I], M 1e-11, read-out: Dose-response assay with CB, Fig3d
  activity at 10 pM: 98%
Purified rMpAOX; [I], M 2.5e-11, read-out: Dose-response assay with CB, (Fig3d)
  activity at 25 pM: 99%
Purified rMpAOX; [I], M 1e-10, read-out: Dose-response assay with CB, Fig3d
  activity at 0.0001 µM: 100%
Purified rMpAOX; [I], M 2.5e-10, read-out: Dose-response assay with CB, (Fig3d)
  activity at 0.00025 µM: 99.7%
Purified rMpAOX; [I], M 1e-9, read-out: Dose-response assay with CB, Fig3d
  activity at 0.001 µM: 96.8%
Purified rMpAOX; [I], M 2.5e-9, read-out: Dose-response assay with CB, (Fig3d)
  activity at 0.0025 µM: 94.6%
Purified rMpAOX; [I], M 1e-8, read-out: Dose-response assay with CB, Fig3d
  activity at 0.01 µM: 79.3%
Purified rMpAOX; [I], M 2.5e-8, read-out: Dose-response assay with CB, (Fig3d)
  activity at 0.025 µM: 69.2%
Purified rMpAOX; [I], M 1e-7, read-out: Dose-response assay with CB, Fig3d
  activity at 0.1 µM: 36.9%
Purified rMpAOX; [I], M 2.5e-7, read-out: Dose-response assay with CB, (Fig3d)
  activity at 0.25 µM: 22.7%
Purified rMpAOX; [I], M 1e-6, read-out: Dose-response assay with CB, Fig3d
  activity at 1 µM: 8.98%
Purified rMpAOX; [I], M 2.5e-6, read-out: Dose-response assay with CB, (Fig3d)
  activity at 2.5 µM: 10.4%
Purified rMpAOX; [I], M 1e-5, read-out: Dose-response assay with CB, Fig3d
  activity at 10 µM: 2.99%
Purified rMpAOX; [I], M 2.5e-5, read-out: Dose-response assay with CB, (Fig3d)
  activity at 25 µM: 0%
Purified rMpAOX; [I], M 0.0001, read-out: Dose-response assay with CB, Fig3d
  activity at 100 µM: 3.34%
Purified rMpAOX; enzyme 49.1 nM
  CB-to-rMpAOX ratio at the IC50 concentration: 1.2
Purified rMpAOX; purified rMpAOX, enzyme 49.1 nM
  IC50: 59.3 nM
[1]; log[CB], M -4.60206 (Fig4b), 25 µM
  Fractional velocity, %: 2.151%
[1]; log[CB], M -4.60206 (Fig4b), read-out: Fractional velocity, %
  activity at 25 µM: 2.86%
[1]; log[CB], M -5.60206 (Fig4b), 2.5 µM
  Fractional velocity, %: 4.07%
[1]; log[CB], M -5.60206 (Fig4b), read-out: Fractional velocity, %
  activity at 2.5 µM: 3.2%
[1]; log[CB], M -6.60206 (Fig4b), 0.25 µM
  Fractional velocity, %: 11.8798%
[1]; log[CB], M -6.60206 (Fig4b), read-out: Fractional velocity, %
  activity at 0.25 µM: 11.1%
[1]; log[CB], M -7.60206 (Fig4b), 0.025 µM
  Fractional velocity, %: 47.093%
[1]; log[CB], M -7.60206 (Fig4b), read-out: Fractional velocity, %
  activity at 0.025 µM: 46.1%
[1]; log[CB], M -8.60206 (Fig4b), 0.0025 µM
  Fractional velocity, %: 86.8217%
[1]; log[CB], M -8.60206 (Fig4b), read-out: Fractional velocity, %
  activity at 0.0025 µM: 74.5%
[1]; log[CB], M -9.60206 (Fig4b), 0.00025 µM
  Fractional velocity, %: 97.2868%
[1]; log[CB], M -9.60206 (Fig4b), read-out: Fractional velocity, %
  activity at 0.00025 µM: 99.3%
[1]; log[CB], M -10.6021 (Fig4b), 25 pM
  Fractional velocity, %: 98.4496%
[1]; log[CB], M -10.6021 (Fig4b), read-out: Fractional velocity, %
  activity at 25 pM: 98.7%
[1]; log[CB], M -11.6021 (Fig4b), read-out: Fractional velocity, %
  activity at 2.5 pM: 100%
[1]; proteoliposomes with rMpAOX, Q10 and NDH-2
  IC50: 19.5 nM
membrane-bound TAO
  IC50: 0.2 nM
Solubilised TAO
  CB-to-enzyme ratio at the IC50 concentration: 1.3
[2]
  CB-to-enzyme ratio at the IC50 concentration: 1.4

## CCCOC(=O)c1cc(O)c(O)c(O)c1 [n-propyl gallate]
M. perniciosa
  Concentrations that inhibit M. perniciosa growth: millimolar concentrations
